Test results taken from US20240327393A1 (SIRONAX LTD., priority 2021, published 2024).

System: HT-1080 (ATCC, CCL-121) cells
Experiment: HT-1080 cell viability assay with ferroptosis inducer RSL3 (Cell Titer-Glo)
Format: cell-based
Conditions: Homo sapiens; HT-1080 cells treated with RSL3; 3-fold, 10-point dilution, 1.1 μM highest concentration; Table 2; read-out: EC50 (nM), ferroptosis inhibitory activity
How it was run: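 HT-1080 cells (6000 per well) were cultured overnight at 37 °C, then co-treated with RSL3 and compound in a 3-fold, 10-point series topping at 1.1 μM. Viability was read by CellTiter-Glo luminescence and normalized to untreated controls. EC50 came from a sigmoidal non-linear regression fit.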

EC50 | Compound
0.1 to 100 nM | CCCOc1cc(Nc2ccc3c(c2)OCC(=O)N3C)ccc1N1CCC(C(F)(F)F)CC1 [Compound 8, 4-methyl-7-((3-propoxy-4-(4-(trifluoromethyl)piperidin-1-yl)phenyl)amino)-2H-benzo[b][1,4]oxazin-3(4H)-one]
0.1 to 100 nM | CC1CCN(c2ccc(Nc3cc4c(c([N+](=O)[O-])c3)CN(C(=O)C(F)(F)F)C4)cc2)CC1 [Compound 255, 2,2,2-trifluoro-1-(6-((4-(4-methylpiperidin-1-yl)phenyl)amino)-4-nitroisoindolin-2-yl)ethan-1-one]
0.1 to 100 nM | CC(C)(C)NC(=O)N1CCOc2cc(Nc3ccc(N4CCC(C(F)(F)F)CC4)cc3)ccc21 [Compound 25]
0.1 to 100 nM | CC1CCN(c2ccc(Nc3ccc4ccn(C)c4c3)cc2)CC1 [Compound 330, 1-methyl-N-(4-(4-methylpiperidin-1-yl)phenyl)-1H-indol-6-amine]
0.1 to 100 nM | COc1cc(Nc2ccc(N3CCC(C(F)(F)F)CC3)cc2)cc2c1oc(=O)n2C [Compound 400, 7-methoxy-3-methyl-5-((4-(4-(trifluoromethyl)piperidin-1-yl)phenyl)amino)benzo[d]oxazol-2(3H)-one]
0.1 to 100 nM | Cn1c(=O)n(C)c2ncc(Nc3ccc(N4CCC(C(F)(F)F)CC4)cc3)cc21 [Compound 343, 1,3-dimethyl-6-((4-(4-(trifluoromethyl)piperidin-1-yl)phenyl)amino)-1,3-dihydro-2H-imidazo[4,5-b]pyridin-2-one]
0.1 to 100 nM | CC1CCN(c2ccc(Nc3cc(Cl)c4c(c3)CN(C(=O)C(F)(F)F)C4)cc2)CC1 [Compound 253, 1-(4-chloro-6-((4-(4-methylpiperidin-1-yl)phenyl)amino)isoindolin-2-yl)-2,2,2-trifluoroethan-1-one]

Further lines, the compound ahead of its results:

Compound | EC50
CN1C(=O)COc2cc(Nc3ccc(N4CC5CCC(C4)O5)c(F)c3)ccc21 [Compound 89, 7-((4-(8-oxa-3-azabicyclo[3.2.1]octan-3-yl)-3-fluorophenyl)amino)-4-methyl-2H-benzo[b][1,4]oxazin-3(4H)-one] | 0.1 to 100 nM
CC(=O)Nc1nn(C)c2ccc(Nc3ccc(N4CCC(C)CC4)cc3)cc12 [Compound 356, N-(1-methyl-5-((4-(4-methylpiperidin-1-yl)phenyl)amino)-1H-indazol-3-yl) acetamide] | 0.1 to 100 nM
CC1CN(c2ccc(Nc3cnc4c(c3)OCC(=O)N4C)cc2)CC(C)O1 (stereo not shown) [Compound 76, 7-((4-(2,6-dimethylmorpholino)phenyl)amino)-4-methyl-2H-pyrido[3,2-b][1,4]oxazin-3(4H)-one] | 0.1 to 100 nM
CC1CN(c2ccc(Nc3ccc4c(C(N)=O)cn(C)c4c3)cc2)CC(C)O1 (stereo not shown) [Compound 442, 6-((4-(2,6-dimethylmorpholino)phenyl)amino)-1-methyl-1H-indole-3-carboxamide] | 0.1 to 100 nM
CN1Cc2cc(Nc3ccc(N4CCCCC4)c(C(F)(F)F)c3)ccc2C1=O [Compound 178, 2-methyl-5-((4-(piperidin-1-yl)-3-(trifluoromethyl)phenyl)amino) isoindolin-1-one] | 0.1 to 100 nM
CC1CN(c2c(F)cc(Nc3ccc4c(c3)OCC(=O)N4C)cc2F)CC(C)O1 (stereo not shown) [Compound 67] | 0.1 to 100 nM

Same assay, conditions: Homo sapiens; HT-1080 cells treated with RSL3; 3-fold, 10-point dilution, 1.1 μM highest concentration; Table 3; read-out: EC50 (nM), ferroptosis inhibitory activity

EC50 | Compound
0.1 to 100 nM | CCC1CN(c2ccc(Nc3ccc4c(c3)CNC(=O)N4)c(C)n2)CCO1 (stereo not shown) [Compound 573, 6-{[6-(2-ethylmorpholin-4-yl)-2-methylpyridin-3-yl]amino}-3,4-dihydro-1H-quinazolin-2-one]
100 to 1000 nM | CC1(O)CCN(c2ccc(Nc3ccc4c(c3)OCC(=O)N4)cc2)CC1 [Compound 540, 7-((4-(4-hydroxy-4-methylpiperidin-1-yl)phenyl)amino)-2H-benzo[b][1,4]oxazin-3(4H)-one]
0.1 to 100 nM | Cc1cc(N2CCC(C(F)(F)F)CC2)ccc1Nc1ccc2c(c1)NCCC(=O)N2 [Compound 643, 7-((2-methyl-4-(4-(trifluoromethyl)piperidin-1-yl)phenyl)amino)-1,3,4,5-tetrahydro-2H-benzo[b][1,4]diazepin-2-one]
